Measurements from US5081023A, “Antibiotic L53-18A and process for preparation thereof” (Toyo Yozo Company, Ltd., priority 1989, dated 1992).
≈ marks a conversion by molar mass, not a printed value. Like-named read-outs stand apart in the source and are kept apart here.

Key:
[1] = tested on: Streptococcus pyogenes N.Y.5; assay: Antimicrobial activity (MIC), Table 1; type: cell-based; settings: read-out: Minimum growth inhibitory concentration
[2] = tested on: Staphylococcus epidermidis ATCC 27626; assay: Antimicrobial activity (MIC), Table 1; type: cell-based; settings: ATCC27626, read-out: Minimum growth inhibitory concentration
Sarcina lutea ATCC 9341 = assay: Antimicrobial activity (MIC), Table 1; type: cell-based; settings: Micrococcus luteus, ATCC9341, read-out: Minimum growth inhibitory concentration
[3] = tested on: Bacillus subtilis ATCC 6633; assay: Antimicrobial activity (MIC), Table 1; type: cell-based; settings: ATCC6633, read-out: Minimum growth inhibitory concentration
[4] = tested on: Klebsiella pneumoniae NCTC 9632; assay: Antimicrobial activity (MIC), Table 1; type: cell-based; settings: NCTC9632, read-out: Minimum growth inhibitory concentration
[5] = tested on: Streptococcus agalactiae 1020; assay: Antimicrobial activity (MIC), Table 1; type: cell-based; settings: read-out: Minimum growth inhibitory concentration
[6] = tested on: Pseudomonas aeruginosa IAM 1095; assay: Antimicrobial activity (MIC), Table 1; type: cell-based; settings: IAM1095, read-out: Minimum growth inhibitory concentration
[7] = Distinction of acidic or basic; type: physicochemical
[8] = tested on: Staphylococcus aureus FDA 209P JC-1; assay: Antimicrobial activity (MIC), Table 1; type: cell-based; settings: FDA209P, read-out: Minimum growth inhibitory concentration
mice = assay: Acute toxicity; type: in vivo; settings: ip, 10 per group, mice surviving at this dose
Procedure: (16) Acute toxicity: 300 mg/kg (ip) with surviving mice (10 mice per one group).

[9] = tested on: Escherichia coli NIHJ JC-2; assay: Antimicrobial activity (MIC), Table 1; type: cell-based; settings: NIHJJC2, read-out: Minimum growth inhibitory concentration
Gram-positive bacteria = assay: Antibacterial activity; type: cell-based
Solubility = type: physicochemical
[10] = tested on: Saccharopolyspora sp. L53-18; assay: Resistance to antibiotic (MIC), Table 3; type: cell-based
Description: [according to J. Antibiot. 32: 180-186 (1976)]

[11] = tested on: Saccharopolyspora sp. L53-18; assay: Resistance to lysozyme; type: cell-based; settings: producing strain L53-18
Description: (8) Resistance to lysozyme: sensitive [Inter. J. System. Bacteriol. 27: 176-178 (1977)]

[12] = resistance of producing strain L53-18 to antibiotics, read-out: MIC
[13] = resistance of producing strain L53-18 to antibiotics

## CC[C@H]1OC(=O)[C@H](C)[C@@H](O[C@H]2C[C@@](C)(OC)[C@@H](O)[C@H](C)O2)[C@H](C)[C@@H](O[C@@H]2O[C@H](C)C[C@H](N(C)C)[C@H]2O)[C@](C)(O)C[C@@H](C)C2=C(C)C(=O)[C@]1(C)O2 [Antibiotic L53-18A]
[1]
  MIC: < 0.05 µg/mL
[2]
  MIC: 0.2 µg/mL (≈ 0.28 µM)
Sarcina lutea ATCC 9341
  MIC: < 0.05 µg/mL
[3]
  MIC: < 0.05 µg/mL
[4]
  MIC: > 100 µg/mL
[5]
  MIC: < 0.05 µg/mL
[6]
  MIC: > 100 µg/mL
[7]
  Distinction of acidic or basic: basic
[8]
  MIC: 0.2 µg/mL (≈ 0.28 µM)
mice
  Acute toxicity (dose with surviving mice): 300 mg/kg
[9]
  MIC: > 100 µg/mL
Gram-positive bacteria
  antibacterial activity to Gram-positive bacteria: shows antibacterial activity to Gram-positive bacteria
Solubility
  Solubility: Soluble in methanol, ethanol, acetone, ethyl acetate, chloroform, benzene and acidic water

## NC[C@H]1O[C@H](O[C@H]2[C@H](O)[C@@H](O[C@H]3O[C@H](CO)[C@@H](O)[C@H](N)[C@H]3O)[C@H](N)C[C@@H]2N)[C@H](O)[C@@H](O)[C@@H]1O [Kanamycin]
[10]
  MIC: 63 µg/mL (≈ 130 µM)

## CCCC(=O)O[C@H]1[C@H](C)O[C@@H](O[C@H]2[C@H](N(C)C)[C@@H](O)[C@H](O[C@H]3[C@@H](CC=O)C[C@@H](C)[C@@H](O)/C=C/C=C/C[C@@H](C)OC(=O)C[C@@H](O)[C@@H]3OC)O[C@@H]2C)C[C@@]1(C)O [Leucomycin A5]
[10]; [12]
  MIC: > 1000 µg/mL

## NC[C@@H]1O[C@H](O[C@H]2[C@@H](O)[C@H](O[C@@H]3[C@@H](O)[C@H](N)C[C@H](N)[C@H]3O[C@H]3O[C@H](CO)[C@@H](O)[C@H](O)[C@H]3N)O[C@@H]2CO)[C@H](N)[C@@H](O)[C@@H]1O [Paromomycin]
[10]; [12]
  MIC: 31 µg/mL (≈ 50.4 µM)

## CO[C@H]1/C=C/O[C@@]2(C)Oc3c(C)c(O)c4c(O)c(c(/C=N/N5CCN(C)CC5)c(O)c4c3C2=O)NC(=O)/C(C)=C\C=C\[C@H](C)[C@H](O)[C@@H](C)[C@@H](O)[C@@H](C)[C@H](OC(C)=O)[C@@H]1C [Rifampicin]
[10]; [12]
  MIC: < 16 µg/mL

## CN[C@@H]1[C@H](O)[C@H](NC)[C@H]2O[C@@]3(O)C(=O)C[C@@H](C)O[C@H]3O[C@@H]2[C@H]1O [Spectinomycin]
[10]; [12]
  MIC: > 1000 µg/mL

## [H]/N=C(/N)N[C@H]1[C@H](O)[C@@H](O)[C@H](O[C@@H]2O[C@@H](C)[C@](O)(C=O)[C@H]2O[C@@H]2O[C@@H](CO)[C@H](O)[C@@H](O)[C@@H]2NC)[C@@H](N/C(N)=N\[H])[C@@H]1O [Streptomycin]
[10]; [12]
  MIC: 31 µg/mL (≈ 53.3 µM)

## Gentamicin
[10]; [13]
  MIC: 16 µg/mL

## Neomycin
[10]; [13]
  MIC: 63 µg/mL

## lysozyme
[11]
  Resistance to lysozyme: sensitive
